The text below walks through data of ChEMBL document CHEMBL4118111, “Discovery and optimization of piperazine-1-thiourea-based human phosphoglycerate dehydrogenase inhibitors” (Bioorg Med Chem, 2018).

As usually defined, the solubility is the concentration that dissolves in the medium under given conditions. Lower therefore signals a poorly soluble substance. As a reminder, the inhibition is the drop in the measured response relative to a control, in per cent. By pIC50 is commonly meant the negative decadic logarithm of the IC50, by convention in mol/L. Read a high pIC50 as a small IC50.

Data set [1] concerns the target T1, D-3-phosphoglycerate dehydrogenase (Homo sapiens) (UniProt O43175).
T1 sequence (whole entry): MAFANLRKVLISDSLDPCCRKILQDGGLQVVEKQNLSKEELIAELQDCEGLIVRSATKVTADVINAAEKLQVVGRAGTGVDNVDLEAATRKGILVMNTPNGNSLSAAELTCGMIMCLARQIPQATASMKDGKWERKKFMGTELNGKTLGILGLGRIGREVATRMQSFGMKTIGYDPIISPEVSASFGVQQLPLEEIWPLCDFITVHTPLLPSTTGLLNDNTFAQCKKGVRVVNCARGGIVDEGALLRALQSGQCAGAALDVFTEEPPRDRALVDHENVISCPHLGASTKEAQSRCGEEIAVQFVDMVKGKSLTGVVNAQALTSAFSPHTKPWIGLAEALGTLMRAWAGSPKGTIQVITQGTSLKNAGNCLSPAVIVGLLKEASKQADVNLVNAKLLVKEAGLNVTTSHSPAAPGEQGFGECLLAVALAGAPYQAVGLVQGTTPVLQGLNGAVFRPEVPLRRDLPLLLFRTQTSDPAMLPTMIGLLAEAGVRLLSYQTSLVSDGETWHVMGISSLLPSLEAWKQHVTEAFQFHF
Nature of the data set: Inhibition of N-terminal His6-tagged human liver PHGDH expressed in Escherichia coli Rosetta (DE3)pLysS at 57 uM using 3-phosphoglycerate as substrate after 20 mins in presence of NAD+ by resazurin fluorescence based PSAT1/diaphorase/PSPH coupled enzyme assay. For orientation: Resazurin is reduced to fluorescent resorufin, in cell work by metabolically active cells.

Data set [2] is described as follows: Aqueous solubility of the compound. The data set is classed as physicochemical.
For data set [3], the target named is T2, D-3-phosphoglycerate dehydrogenase (Homo sapiens, UniProt O43175).
T2 sequence (O43175 whole entry): T1 sequence (whole entry)

In data set [4] the target is T2, D-3-phosphoglycerate dehydrogenase. Put plainly: Inhibition of PHGDH (unknown origin).
Data set [5] can be described thus: Half life in rat liver microsomes at 1 uM at 37 degC in presence of NADPH regeneration system incubated for 15 mins by LC-MS/MS analysis. Type of data set: ADME, microsome.

pIC50: −log10 of the molar value.

Turning to `Cc1cc(C)nc(NC(=S)N2CCN(c3ccncc3)CC2)c1`, in data set [1], the Imax was found to be 33%. This molecule also had a solubility in data set [2] greater than 48 µM.

`COc1ccccc1N1CCN(C(=S)Nc2cc(C)cc(C)n2)CC1`: the inhibition in data set [1] was 109%. The pIC50 in data set [3] is 4.62.

For the molecule `Cc1cc(C)nc(NC(=S)N2CCCC(NCc3ccc(C(F)(F)F)cc3)C2)c1` (centres undefined), the inhibition in data set [1] was found to be 89%. The pIC50 in data set [3] was 4.92.

As to `Cc1cc(NC(=S)N2CCN(c3cccc(C(F)(F)F)c3)CC2)nc2ccccc12`, the inhibition in data set [1] worked out at 119%. The molecule further had a pIC50 in data set [3] of 4.68.

As to `Cc1cc(C)nc(NC(=S)N2CCN(c3ccccc3C(F)(F)F)CC2)c1`, the inhibition in data set [1] worked out at 101%. In data set [3], this molecule had a pIC50 of 5.06.

Take `FC(F)(F)c1cccc(N2CCN(C(=S)Nc3cc(C(F)(F)F)ccn3)CC2)c1`: the inhibition in data set [1] was found to be 61%. In data set [3], this molecule showed a pIC50 of 5.19.

As for `Cc1cc(C)nc(NC(=S)N2CCN(Cc3cccc(Cl)c3)CC2)c1`, the inhibition in data set [1] is 90%. Besides, the pIC50 in data set [3] is 4.96.

As to `Cc1cc(C)nc(NC(=S)N2CCN(c3ccc(C(F)(F)F)cc3)CC2)c1`, the inhibition in data set [1] was 98%. The negative logarithm of the IC50 (pIC50) in data set [3] is 5.37.

With `Cc1cc(C)nc(NC(=S)N2CCN(Cc3ccc(OC(F)(F)F)cc3)CC2)c1`, in data set [1], the inhibition worked out at 96%. The same molecule gave a pIC50 in data set [3] of 4.96.

As for `Cc1cc(C)nc(NC(=S)N2CCN(Cc3cccc(F)c3)CC2)c1`, the inhibition in data set [1] turned out to be 88%. Further, the pIC50 in data set [3] was 4.41.

Turning to `Cc1cc(C)nc(NC(=S)N2CCCC(Nc3ccc(C(F)(F)F)cc3)C2)c1` (centres undefined), the inhibition in data set [1] came to 85%. In data set [3], this molecule gave a pIC50 of 5.24.

For the molecule `Cc1cc(C)nc(NC(=S)N2CCN(C(=O)c3ccc(C(F)(F)F)cc3)CC2)c1`, in data set [1], the inhibition turned out to be 85%. This molecule also showed a pIC50 in data set [3] of 4.72.

Take `Cc1cc(C)nc(NC(=S)N2CCN(c3ccccn3)CC2)c1`: the inhibition in data set [1] was determined as 73%. Besides, the pIC50 in data set [3] was 4.43.

In the case of `Cc1cc(C)nc(NC(=S)N2CCC(NC(=O)c3cccc(C(F)(F)F)c3)CC2)c1`, in data set [1], the inhibition is 94%. Further, in data set [3], the pIC50 was 4.96.

As for `Cc1cc(C)nc(NC(=S)N2CCN(Cc3ccncc3)CC2)c1`, the inhibition in data set [1] came out at 67%. For the same molecule, in data set [3], the pIC50 was 4.23.

Regarding `Cc1cc(C)nc(NC(=S)N2CCC(NCc3ccc(C(F)(F)F)cc3)CC2)c1`, the inhibition in data set [1] amounted to 93%. For the same molecule, the pIC50 in data set [3] was 4.82.

For the molecule `CCNC(=S)N/N=C/c1ccc(-c2ccc(C(=O)O)c(Cl)c2)o1`, the pIC50 in data set [4] was 4.45.

`Cc1cc(C)nc(NC(=S)N2CCN(c3cccnc3)CC2)c1`: the inhibition in data set [1] stood at 68%. For the same molecule, the pIC50 in data set [3] is 4.30.

For `Cc1cc(C)nc(NC(=S)N2CCN(C(=O)c3cccc(C(F)(F)F)c3)CC2)c1`, in data set [1], the inhibition is 101%. This molecule also had a pIC50 in data set [3] of 4.66.

As for `Cc1cccc(CN2CCN(C(=S)Nc3cc(C)cc(C)n3)CC2)c1`, the inhibition in data set [1] amounted to 92%. Also, the pIC50 in data set [3] was 4.70.

`Cc1cc(C)nc(NC(=S)N2CCN(Cc3ccccc3C(F)(F)F)CC2)c1`: the inhibition in data set [1] came to 92%. This molecule also showed a pIC50 in data set [3] of 5.20.

As to `Cc1cc(C)nc(NC(=S)N2CCN(c3cccc(C(F)(F)F)n3)CC2)c1`, in data set [1], the inhibition came to 100%. Besides, the pIC50 in data set [3] was 4.96.

As to `Cc1cc(C)nc(NC(=S)N2CCN(Cc3ccc(C(F)(F)F)cc3)C(C(=O)O)C2)c1` (centres undefined), the inhibition in data set [1] was 93%. The same molecule had a pIC50 in data set [3] of 4.48.

As to `Cc1cc(C)nc(NC(=S)N2CCN(Cc3ccc(C(F)(F)F)cc3)[C@@H](C)C2)c1`, the inhibition in data set [1] came to 86%. In data set [3], this molecule had a pIC50 of 5.00.

With `Cc1cc(C)nc(NC(=S)N2CCN(Cc3ccccc3C)CC2)c1`, the inhibition in data set [1] was 85%. Also, the pIC50 in data set [3] is 5.04.

Regarding `Cc1cc(C)nc(NC(=S)NCCNCc2ccc(C(F)(F)F)cc2)c1`, in data set [1], the inhibition came out at 41%. The molecule further showed a pIC50 in data set [3] of 5.01.

For the molecule `Cc1cc(C)nc(NC(=S)N2CCN(Cc3cccc(C(F)(F)F)c3)CC2)c1`, the inhibition in data set [1] worked out at 102%. In data set [3], this molecule had a pIC50 of 5.28.

Take `Cc1cc(C)nc(NC(=S)N2CCC(Nc3ccc(C(F)(F)F)cc3)CC2)c1`: the inhibition in data set [1] turned out to be 97%. For the same molecule, the pIC50 in data set [3] is 5.11.

`Cc1cc(C)nc(NC(=S)N2CC3CN(Cc4ccc(C(F)(F)F)cc4)CC3C2)c1` (centres undefined): in data set [1], the inhibition was determined as 93%. This molecule had a pIC50 in data set [3] of 4.80.

Take `COc1cccc(N2CCN(C(=S)Nc3cc(C)cc(C)n3)CC2)c1`: the inhibition in data set [1] was determined as 101%. In data set [3], the pIC50 is 4.85.

In the case of `Cc1cc(C)nc(NC(=S)N2CCN(Cc3ccc(Br)cc3)CC2)c1`, the inhibition in data set [1] turned out to be 92%. This molecule also gave a pIC50 in data set [3] of 4.77.

Regarding `Cc1cc(C)nc(NC(=S)NCCN(C)Cc2ccc(C(F)(F)F)cc2)c1`, the inhibition in data set [1] was determined as 66%. Further, the pIC50 in data set [3] is 4.68.

For `Cc1cc(C)nc(NC(=S)N2CCN(Cc3ccccn3)CC2)c1`, the inhibition in data set [1] was 51%. The pIC50 in data set [3] was 4.30.

On to `Cc1cc(C)nc(NC(=S)N2CCN(C(C)c3ccc(C(F)(F)F)cc3)CC2)c1` (centres undefined), for which the inhibition in data set [1] worked out at 90%. This molecule had a pIC50 in data set [3] of 5.10.

Consider `FC(F)(F)c1cccc(N2CCN(C(=S)Nc3ccccn3)CC2)c1`, for which the inhibition in data set [1] stood at 93%. In addition, the t1/2 in data set [5] amounted to 16 min. In data set [3], this molecule showed a pIC50 of 5.17.

Turning to `Cc1cc(C)nc(NC(=S)N(C)CCN(C)Cc2ccc(C(F)(F)F)cc2)c1`, the inhibition in data set [1] is 84%. The same molecule showed a pIC50 in data set [3] of 5.14.

As to `COc1cccc(CN2CCN(C(=S)Nc3cc(C)cc(C)n3)CC2)c1`, in data set [1], the inhibition was determined as 94%. In addition, in data set [3], the pIC50 was 4.52.

`Cc1cc(C)nc(NC(=S)N2CCN(c3cccc(C(F)(F)F)c3)CC2)c1`: the inhibition in data set [1] came to 92%. Besides, the t1/2 in data set [5] is greater than 30 min. The molecule also gave a pIC50 in data set [3] of 5.20.

For the molecule `Cc1cc(C)nc(NC(=S)N2CCN(Cc3ccccc3)CC2)c1`, in data set [1], the inhibition stood at 78%. The same molecule had a pIC50 in data set [3] of 4.40.

Turning to `Cc1cc(C)nc(NC(=S)N2CCN(CCc3ccc(C(F)(F)F)cc3)CC2)c1`, the inhibition in data set [1] was 87%. The molecule further showed a pIC50 in data set [3] of 4.64.

`FC(F)(F)c1cccc(N2CCN(C(=S)Nc3ccc4ccccc4n3)CC2)c1`: the inhibition in data set [1] came out at 90%. This molecule gave a pIC50 in data set [3] of 5.00.

Turning to `Cc1cc(C)nc(NC(=S)N2CCN(Cc3ccc(C(F)(F)F)cc3)[C@H](C)C2)c1`, the inhibition in data set [1] was 94%. Besides, in data set [3], the pIC50 was 4.92.

With `Cc1cc(C)nc(NC(=S)N2CCCC(NC(=O)c3ccc(C(F)(F)F)cc3)C2)c1` (centres undefined), in data set [1], the inhibition is 88%. Besides, the pIC50 in data set [3] was 5.06.

Consider `FC(F)(F)c1cccc(N2CCN(C(=S)Nc3ccncc3)CC2)c1`, for which the inhibition in data set [1] came to 55%. The pIC50 in data set [3] was 4.85.
